Experimental data from publication PMC12858405, “Ideal efficacy photoswitching for chromocontrol of TRPC4/5 channel functions in live tissues” (Nature Chemical Biology, 2026).

Key:
[1] = target: T1, heteromeric TRPC5:TRPC1 (Homo sapiens, UniProt Q9UL62); assay: Whole-cell recordings, HEK293 co-expressing TRPC5 and TRPC1; type: cell-based; details: 10 nM
T1 construct: expressed in transfected cells; host or cells: HEK293, transiently transfected
From the text: (§1) Müller, Niemeyer, et al., Schaefer & Thorn-Seshold 2025: Ideal Efficacy Photoswitching of TRPC4/5 in Tissue 3.3 Activation of heteromeric TRPC4:TRPC1 and TRPC5:TRPC1
(§2) Supplementary Figure 15: Photoswitching of ionic currents through heteromeric TRPC4:TRPC1 and TRPC5:TRPC1 channel complexes. Whole cell recordings from HEK293 cells that were transiently transfected to express the indicated TRPC isoforms were obtained in the whole cell mode with a voltage and photoswitching paradigm as illustrated in (A). (B-D) Superimposed recordings of 20 consecutive sweeps are shown for cells that ony express TRPC4 or TRPC5 (left), and for cells that co-express the respective TRPC channel along with TRPC1 (right). Note the characteristic change of the current-voltage relationship with smaller inward currents and stronger outward rectification in cells that co-express TRPC1. […]
(§3) or 10 nM (all other panels). The data shown are representative for 4-12 patched cells, each.
(§4) Currents through heteromeric complexes that are composed of TRPC4:TRPC1 or TRPC5:TRPC1 subunits can be unequivocally recognized on the basis of their unique biophysical properties with smaller unitary and global inward current amplitudes and a marked outward rectification.44 We show […]
(§5) also the heteromeric complexes TRPC5:TRPC1 and TRPC4:TRPC1 that are formed upon co-expression with TRPC1 (Supplementary Fig. 15). […]

[2] = target: T2, heteromeric TRPC4:TRPC1 (Homo sapiens, UniProt Q9UBN4); assay: Whole-cell recordings, HEK293 co-expressing TRPC4 and TRPC1; type: cell-based; details: 30 nM
T2 construct: expressed in transfected cells; host or cells: HEK293, transiently transfected
T2 sequence (Q9UBN4 whole entry): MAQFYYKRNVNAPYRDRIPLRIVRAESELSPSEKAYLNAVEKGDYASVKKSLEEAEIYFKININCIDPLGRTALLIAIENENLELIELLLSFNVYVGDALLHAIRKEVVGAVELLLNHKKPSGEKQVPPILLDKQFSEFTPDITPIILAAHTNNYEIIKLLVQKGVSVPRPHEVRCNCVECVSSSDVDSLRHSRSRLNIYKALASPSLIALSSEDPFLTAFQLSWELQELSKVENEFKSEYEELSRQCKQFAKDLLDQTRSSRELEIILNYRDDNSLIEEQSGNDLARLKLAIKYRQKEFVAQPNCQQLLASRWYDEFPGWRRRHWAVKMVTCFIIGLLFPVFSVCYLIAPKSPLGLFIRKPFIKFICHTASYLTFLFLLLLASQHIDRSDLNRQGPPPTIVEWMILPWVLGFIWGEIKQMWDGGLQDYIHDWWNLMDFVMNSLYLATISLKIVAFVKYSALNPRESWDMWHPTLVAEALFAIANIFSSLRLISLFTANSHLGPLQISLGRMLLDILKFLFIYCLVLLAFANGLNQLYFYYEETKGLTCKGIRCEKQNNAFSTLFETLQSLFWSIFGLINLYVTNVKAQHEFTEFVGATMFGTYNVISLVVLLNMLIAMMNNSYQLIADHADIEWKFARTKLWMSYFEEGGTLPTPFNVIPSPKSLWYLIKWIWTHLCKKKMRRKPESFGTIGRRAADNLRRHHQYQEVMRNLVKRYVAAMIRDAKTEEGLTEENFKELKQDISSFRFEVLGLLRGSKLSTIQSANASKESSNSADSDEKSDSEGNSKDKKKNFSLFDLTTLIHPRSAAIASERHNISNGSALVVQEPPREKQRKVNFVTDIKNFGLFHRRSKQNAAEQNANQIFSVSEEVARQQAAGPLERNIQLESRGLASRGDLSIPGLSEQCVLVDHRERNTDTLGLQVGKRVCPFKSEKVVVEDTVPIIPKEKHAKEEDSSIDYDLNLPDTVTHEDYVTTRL
T2 sequence (P48995 whole entry partner): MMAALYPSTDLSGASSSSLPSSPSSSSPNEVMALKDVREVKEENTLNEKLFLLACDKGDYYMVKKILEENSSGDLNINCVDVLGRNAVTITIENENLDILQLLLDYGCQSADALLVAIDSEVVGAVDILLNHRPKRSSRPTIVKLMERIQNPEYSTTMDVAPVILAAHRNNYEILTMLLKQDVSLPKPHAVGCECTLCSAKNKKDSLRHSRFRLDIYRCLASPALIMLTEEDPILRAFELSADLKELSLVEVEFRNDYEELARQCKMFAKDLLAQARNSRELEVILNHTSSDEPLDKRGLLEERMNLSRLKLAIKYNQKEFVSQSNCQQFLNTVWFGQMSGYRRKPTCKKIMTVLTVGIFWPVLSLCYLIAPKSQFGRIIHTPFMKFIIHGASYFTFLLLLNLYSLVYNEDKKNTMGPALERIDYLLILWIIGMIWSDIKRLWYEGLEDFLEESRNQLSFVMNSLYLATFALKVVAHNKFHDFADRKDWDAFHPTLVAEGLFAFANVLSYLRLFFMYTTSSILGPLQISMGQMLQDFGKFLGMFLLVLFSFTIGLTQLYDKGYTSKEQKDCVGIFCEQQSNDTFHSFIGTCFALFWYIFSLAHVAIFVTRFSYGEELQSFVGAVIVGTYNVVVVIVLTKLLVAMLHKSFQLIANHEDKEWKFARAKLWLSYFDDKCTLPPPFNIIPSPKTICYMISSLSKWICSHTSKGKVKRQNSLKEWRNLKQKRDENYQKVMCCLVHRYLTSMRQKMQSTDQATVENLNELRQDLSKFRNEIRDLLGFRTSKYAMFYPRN
From the text: as §1, §2, §3, §4, §5

[3] = PSS E/Z ratios by HPLC; type: physicochemical; details: for PSS % E at 330 nm / PSS % E at 340 nm / PSS % E at 350 nm / PSS % E at 360 nm / PSS % E at 370 nm / PSS % E at 380 nm / PSS % E at 390 nm / PSS % E at 400 nm / PSS % E at 410 nm / PSS % E at 420 nm / PSS % E at 430 nm / PSS % E at 440 nm / PSS % E at 450 nm / PSS % E at 460 nm / PSS % E at 470 nm / PSS % E at 480 nm / PSS % E at 490 nm / PSS % E at 500 nm / PSS % Z at 330 nm / PSS % Z at 340 nm / PSS % Z at 350 nm / PSS % Z at 360 nm / PSS % Z at 370 nm / PSS % Z at 380 nm / PSS % Z at 390 nm / PSS % Z at 400 nm / PSS % Z at 410 nm / PSS % Z at 420 nm / PSS % Z at 430 nm / PSS % Z at 440 nm / PSS % Z at 450 nm / PSS % Z at 460 nm / PSS % Z at 470 nm / PSS % Z at 480 nm / PSS % Z at 490 nm / PSS % Z at 500 nm: monochromator, HPLC integration (296 nm)
Description: UV-VIS. UV-Vis spectra were recorded on an Agilent Cary 60 UV-Vis spectrophotometer using 1 cm quartz or PMMA cuvettes. All photoisomerisations were performed at room temperature in non-degassed solvents unless stated differently. Samples were irradiated with either a CoolLED pE-4000 or Polycon V monochromator (TILL Photonics, Gräfelfing, Germany) by shining from the […]
differently, all measurements were performed at a default concentration of 20 μM. Dark state refers […]
methods followed standard practices39–41. All-E and PSS spectra are shown in Supplementary […]
HPLC for PSS E/Z ratios. Analytical HPLC was performed on an Agilent 1200 SL with (a) a binary pump able to deliver H2O:MeCN eluent mixtures containing 0.1% formic acid at a 1 mL/min flow rate [for PSS measurements of final compounds, only MeCN was used], (b) YMC Carotenoid 5 µm, […]
(100 µM, MeCN) in HPLC vials were irradiated for at least 6 min from top with the monochromator […]
separate well); PSS ratio was then determined by integrating the signal at an isosbestic region

T1 sequence (Q9UL62 whole entry): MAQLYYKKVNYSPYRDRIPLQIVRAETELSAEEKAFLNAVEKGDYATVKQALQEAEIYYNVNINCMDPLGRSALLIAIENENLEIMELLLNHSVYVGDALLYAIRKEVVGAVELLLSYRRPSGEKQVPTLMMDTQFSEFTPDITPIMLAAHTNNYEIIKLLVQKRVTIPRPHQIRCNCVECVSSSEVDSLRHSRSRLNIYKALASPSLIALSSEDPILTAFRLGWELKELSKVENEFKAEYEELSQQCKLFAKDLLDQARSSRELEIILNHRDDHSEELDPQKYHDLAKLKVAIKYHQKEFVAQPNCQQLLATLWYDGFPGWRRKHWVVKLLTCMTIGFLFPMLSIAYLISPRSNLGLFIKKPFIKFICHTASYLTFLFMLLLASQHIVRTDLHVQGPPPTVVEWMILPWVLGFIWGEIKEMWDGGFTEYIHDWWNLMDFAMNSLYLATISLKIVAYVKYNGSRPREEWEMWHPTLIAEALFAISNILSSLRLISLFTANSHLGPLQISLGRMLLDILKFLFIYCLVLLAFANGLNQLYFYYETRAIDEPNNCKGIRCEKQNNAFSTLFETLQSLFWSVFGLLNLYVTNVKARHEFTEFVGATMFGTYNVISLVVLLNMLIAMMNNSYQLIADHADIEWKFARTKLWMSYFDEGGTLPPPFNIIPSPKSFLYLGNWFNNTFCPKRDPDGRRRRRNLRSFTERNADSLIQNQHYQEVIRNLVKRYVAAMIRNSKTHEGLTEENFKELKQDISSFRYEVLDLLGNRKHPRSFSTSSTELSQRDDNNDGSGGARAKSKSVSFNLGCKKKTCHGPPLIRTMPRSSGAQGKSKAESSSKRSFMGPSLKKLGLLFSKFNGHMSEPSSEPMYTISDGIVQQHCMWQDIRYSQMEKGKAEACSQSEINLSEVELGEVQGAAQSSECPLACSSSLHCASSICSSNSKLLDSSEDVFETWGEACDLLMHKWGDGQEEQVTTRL
T1 sequence (P48995 whole entry partner): as the sequence (P48995 whole entry partner) above

Compound | Chromocontrol over heteromeric TRPC5:TRPC1 currents versus homomeric channels [1] | Chromocontrol over heteromeric TRPC4:TRPC1 currents versus homomeric channels [2] | PSS %E around 410 nm [3] | PSS %Z around 360 nm [3] [%] | PSS % E at 330 nm [3] [%] | PSS % E at 340 nm [3] [%] | PSS % E at 350 nm [3] [%] | PSS % E at 360 nm [3] [%] | PSS % E at 370 nm [3] [%] | PSS % E at 380 nm [3] [%] | PSS % E at 390 nm [3] [%] | PSS % E at 400 nm [3] [%] | PSS % E at 410 nm [3] [%] | PSS % E at 420 nm [3] [%] | PSS % E at 430 nm [3] [%] | PSS % E at 440 nm [3] [%] | PSS % E at 450 nm [3] [%] | PSS % E at 460 nm [3] [%] | PSS % E at 470 nm [3] [%] | PSS % E at 480 nm [3] [%] | other results
Cn1c(=O)n(CCCO)c(=O)c2c1nc(Oc1ccc(N=Nc3ccccc3)c(Cl)c1)n2Cc1ccc(Cl)cc1 [AzHC] | comparable chromocontrol | comparable chromocontrol | ~ 82% | 95 | 21 | 6 | 4 | 4 | 7 | 23 | 52 | 74 | 81 | 80 | 79 | 76 | 72 | 68 | 63 | 59 | PSS % E at 490 nm [3]: 55%; PSS % E at 500 nm [3]: 52%; PSS % Z at 330 nm [3]: 79%; PSS % Z at 340 nm [3]: 94%; PSS % Z at 350 nm [3]: 96%; PSS % Z at 360 nm [3]: 96%; PSS % Z at 370 nm [3]: 93%; PSS % Z at 380 nm [3]: 78%; PSS % Z at 390 nm [3]: 48%; PSS % Z at 400 nm [3]: 26%; PSS % Z at 410 nm [3]: 19%; PSS % Z at 420 nm [3]: 20%; PSS % Z at 430 nm [3]: 21%; PSS % Z at 440 nm [3]: 24%; PSS % Z at 450 nm [3]: 28%; PSS % Z at 460 nm [3]: 32%; PSS % Z at 470 nm [3]: 37%; PSS % Z at 480 nm [3]: 41%; PSS % Z at 490 nm [3]: 45%; PSS % Z at 500 nm [3]: 48%
Cn1c(=O)n(CCCO)c(=O)c2c1nc(Oc1ccc(N=Nc3ccccc3)c(OC(F)(F)F)c1)n2Cc1ccc(Cl)cc1 [AzPico] | comparable chromocontrol | comparable chromocontrol | ~ 82% | 95 | 16 | 8 | 5 | 5 | 11 | 23 | 38 | 79 | 84 | 84 | 82 | 80 | 77 | 74 | 70 | 67 | PSS % E at 490 nm [3]: 64%; PSS % E at 500 nm [3]: 61%; PSS % Z at 330 nm [3]: 84%; PSS % Z at 340 nm [3]: 92%; PSS % Z at 350 nm [3]: 95%; PSS % Z at 360 nm [3]: 95%; PSS % Z at 370 nm [3]: 89%; PSS % Z at 380 nm [3]: 77%; PSS % Z at 390 nm [3]: 62%; PSS % Z at 400 nm [3]: 21%; PSS % Z at 410 nm [3]: 16%; PSS % Z at 420 nm [3]: 16%; PSS % Z at 430 nm [3]: 18%; PSS % Z at 440 nm [3]: 20%; PSS % Z at 450 nm [3]: 23%; PSS % Z at 460 nm [3]: 27%; PSS % Z at 470 nm [3]: 30%; PSS % Z at 480 nm [3]: 33%; PSS % Z at 490 nm [3]: 36%; PSS % Z at 500 nm [3]: 39%
